# From patent US11766410B2, “Composition for preventing or treating dry eye syndrome containing α-humulene as active ingredient” (INJE UNIVERSITY INDUSTRY-ACADEMIC COOPERATION FOUNDATION, priority 2018, dated 2023)
# What was measured:
# Assay type in all cases: in vivo, rat
# MUC1 = assay: Mucin gene expression by real-time PCR in conjunctival epithelium after eye drop administration; details: 10 μl of 0.5 mg/ml eye drops twice a day for 5 days, right eye vs saline left eye; corrected by β-actin; FIG. 1
# Method: (§1) α-humulene was administered to the eye in the following way: 6 male rats with a body weight of about 200 g were used, and the left eye was designated as the control group and the right eye was designated as the experimental group. Samples as eye drops were administered to the eye twice a day for 5 days and 10 μl of physiological saline was administered to the left eye (control group) and 10 μl of 0.5 mg/ml α-humulene diluted in physiological saline was administered to the right eye (experimental group) as eye drops. Animals were sacrificed to extract the conjunctival epithelium containing the fornix conjunctiva from the eyes and the extracted tissue was isolated and used for molecular biological analysis.
# (§2) RNA was extracted from the ocular tissues of rats according to the manufacturers instructions using RNeasy mini kit from Qiagen (USA). The cDNA was synthesized using the cDNA synthesis kit of Qiagen (USA) from the isolated RNA, and then it was used for real-time polymerase chain reaction (real-time PCR). Real-time PCR was performed according to the manufacturer's instructions using Qiagen's Rotor-Gene Q 2 plex real-time DNA amplifier and Qiagen's two-step PCR SYBR kit, and the amount of amplified DNA was quantitatively compared. Specifically, after pre-denaturation at 95° C. for 5 minutes based on the cycling protocol, each 40 cycles were repeated at 95° C. for 5 seconds and at 60° C. for 10 seconds, and it was performed in the order of the melting step rising for 3 minutes from 60° C. to 95° C. The product amplified by the real-time PCR was quantified using the Delta delta Ct method, and corrected by the expression amount of β-actin for each sample.
# MUC4 = assay: as above; details: 10 μl of 0.5 mg/ml eye drops twice a day for 5 days, right eye vs saline left eye; corrected by β-actin; FIG. 1
# Method: as §1, §2
# MUC6 = assay: as above; details: 10 μl of 0.5 mg/ml eye drops twice a day for 5 days, right eye vs saline left eye; corrected by β-actin; FIG. 1
# Method: as §1, §2
# animal model of dry eye = assay: Inhibition and treatment effect on dry corneal epithelial damage, tear amount by tear test strip; details: 10 μl of 0.5 mg/ml eye drop solution for 2 weeks, FIG. 2
# Method: For experiments on dry corneal epithelial damage, an animal model of dry eye was prepared. It was induced by instill 1% atropine sulfate and 0.1% benzalkonium chloride twice a day for 2 weeks. After administration of the dry eye inducer, the experimental animals were applied by ocular administration according to the above-described administration method at an interval of 1 hour.
# After administration of the sample for 2 weeks, the animals were anesthetized with isoflurane, and then the tear amount of each rat was measured using a Shrimer tear test strip.
smiles,measurement,setting,value
C/C1=C\CC/C(C)=C/CC(C)(C)/C=C/C1 [α-humulene],expression of MUC1,MUC1,increased significantly
same,expression of MUC4,MUC4,increased significantly
same,expression of MUC6,MUC6,increased significantly
same,amount of tears,"animal model of dry eye; AS/BAC-induced dry eye, tear test strip",significant difference in the amount of tears
same,therapeutic effect on dry corneal epithelial damage,animal model of dry eye; dry eye induced by 1% atropine sulfate/0.1% benzalkonium chloride (AS/BAC),showed the therapeutic effect of the corneal epithelium
